Measured values as given in ChEMBL document CHEMBL1201861, “Genomics of Drug Sensitity in Cancer screening data, Wellcome Trust Sanger Institute”.

What was measured:
Test in all cases: cells
[1] = system: A3-KAW; format: functional, cell-based; conditions: Homo sapiens;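 note: growth inhibition of human A3-KAW cells, read out with a cell viability assay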
Description: SANGER: Inhibition of human A3-KAW cell growth in a cell viability assay.

[2] = system: PSN1; format: functional, cell-based, Homo sapiens; conditions: Homo sapiens, PSN1;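 note: suppression of growth of human PSN1 cells, read out by a cell viability assay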
Description: SANGER: Inhibition of human PSN1 cell growth in a cell viability assay.

[3] = system: LAMA-84; format: functional, cell-based; conditions: Homo sapiens;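 note: growth inhibition of LAMA-84 cells, read out with a cell viability assay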
Description: SANGER: Inhibition of human LAMA-84 cell growth in a cell viability assay.

[4] = system: HT; format: functional, cell-based; conditions: Homo sapiens
Description: SANGER: Inhibition of human HT cell growth in a cell viability assay.

[5] = system: LS-513; format: functional, cell-based, Homo sapiens; conditions: Homo sapiens, LS-513
Description: SANGER: Inhibition of human LS-513 cell growth in a cell viability assay.

[6] = system: TE-12; format: functional, cell-based; conditions: Homo sapiens;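 note: growth inhibition of TE-12 cells, read out by a cell viability assay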
Description: SANGER: Inhibition of human TE-12 cell growth in a cell viability assay.

[7] = system: GT3TKB; format: functional, cell-based, Homo sapiens; conditions: Homo sapiens, GT3TKB;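 note: growth inhibition of the cell line, read out with a cell viability assay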
Description: SANGER: Inhibition of human GT3TKB cell growth in a cell viability assay.

[8] = system: NEC8; format: functional, cell-based, Homo sapiens; conditions: Homo sapiens, NEC8;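 note: growth inhibition of human NEC8 cells, read out by a cell viability assay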
Description: SANGER: Inhibition of human NEC8 cell growth in a cell viability assay.

[9] = system: CW-2; format: functional, cell-based, Homo sapiens; conditions: Homo sapiens, CW-2;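 note: growth inhibition of CW-2 cells, read out by a cell viability assay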
Description: SANGER: Inhibition of human CW-2 cell growth in a cell viability assay.

[10] = system: MPP-89; format: functional, cell-based, Homo sapiens; conditions: Homo sapiens, MPP-89;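 note: growth inhibition of human MPP-89 cells, read out with a cell viability assay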
Description: SANGER: Inhibition of human MPP-89 cell growth in a cell viability assay.

[11] = system: LB2518-MEL; format: functional, cell-based, Homo sapiens; conditions: Homo sapiens, LB2518-MEL;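 note: growth inhibition of human LB2518-MEL cells, measured with a cell viability assay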
Description: SANGER: Inhibition of human LB2518-MEL cell growth in a cell viability assay.

[12] = system: LU-139; format: functional, cell-based; conditions: Homo sapiens
Description: SANGER: Inhibition of human LU-139 cell growth in a cell viability assay.

[13] = system: COLO-824; format: functional, cell-based, Homo sapiens; conditions: Homo sapiens, COLO-824
Description: SANGER: Inhibition of human COLO-824 cell growth in a cell viability assay.

[14] = system: AM-38; format: functional, cell-based, Homo sapiens; conditions: Homo sapiens, AM-38;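 note: growth inhibition of AM-38 cells of human origin, read out by a cell viability assay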
Description: SANGER: Inhibition of human AM-38 cell growth in a cell viability assay.

[15] = system: HH; format: functional, cell-based; conditions: Homo sapiens
Description: SANGER: Inhibition of human HH cell growth in a cell viability assay.

[16] = system: ONS-76; format: functional, cell-based, Homo sapiens; conditions: Homo sapiens, ONS-76;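 note: growth inhibition of human ONS-76 cells, read out with a cell viability assay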
Description: SANGER: Inhibition of human ONS-76 cell growth in a cell viability assay.

[17] = system: NOS-1; format: functional, cell-based, Homo sapiens; conditions: Homo sapiens, NOS-1;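 note: growth inhibition of the human NOS-1 cell line, read out with a cell viability assay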
Description: SANGER: Inhibition of human NOS-1 cell growth in a cell viability assay.

[18] = system: TE-9; format: functional, cell-based, Homo sapiens; conditions: Homo sapiens, TE-9;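 note: cell growth inhibition, measured with a cell viability readout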
Description: SANGER: Inhibition of human TE-9 cell growth in a cell viability assay.

[19] = system: NCI-H2126; format: functional, cell-based, Homo sapiens; conditions: Homo sapiens, NCI-H2126;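 note: growth inhibition of the cancer cell line, determined with a cell viability readout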
Description: SANGER: Inhibition of human NCI-H2126 cell growth in a cell viability assay.

[20] = system: NCI-H747; format: functional, cell-based; conditions: Homo sapiens;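 note: growth inhibition of human NCI-H747 cells, read out by a cell viability assay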
Description: SANGER: Inhibition of human NCI-H747 cell growth in a cell viability assay.

[21] = system: HEL; format: functional, cell-based, Homo sapiens; conditions: Homo sapiens, HEL;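 note: growth inhibition of HEL cells, read out with a cell viability assay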
Description: SANGER: Inhibition of human HEL cell growth in a cell viability assay.

[22] = system: EW-13; format: functional, cell-based; conditions: Homo sapiens;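 note: growth inhibition of EW-13 cells, read out with a cell viability assay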
Description: SANGER: Inhibition of human EW-13 cell growth in a cell viability assay.

[23] = system: NCI-H720; format: functional, cell-based; conditions: Homo sapiens;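 note: growth inhibition of human NCI-H720 cells determined by a cell viability assay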
Description: SANGER: Inhibition of human NCI-H720 cell growth in a cell viability assay.

[24] = system: LS-411N; format: functional, cell-based, Homo sapiens; conditions: Homo sapiens, LS-411N
[25] = system: EM-2; format: functional, cell-based; conditions: Homo sapiens;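 note: growth inhibition of EM-2 cells, read out with a cell viability assay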
Description: SANGER: Inhibition of human EM-2 cell growth in a cell viability assay.

Measured: IC50

C=C1C(=O)O[C@@H]2C3O[C@]3(C)CC/C=C(\C)CC[C@@H]12 (stereo not given in full)
3.18 µM: [21]
2.29 µM: [1]
> 5 µM: all other assays above

CC1=C2C[C@H]3[C@@H](CC=C4C[C@@H](O)CC[C@@]43C)[C@@H]2CC[C@]12O[C@@H]1C[C@H](C)CN[C@H]1[C@H]2C [CYCLOPAMINE]
11.4 µM: [5]
> 16 µM: all other assays above

CS(=O)(=O)CCNCc1ccc(-c2ccc3ncnc(Nc4ccc(OCc5cccc(F)c5)c(Cl)c4)c3c2)o1 [LAPATINIB]
0.491 µM: [6]
0.745 µM: [18]
> 2 µM: all other assays above

CCc1nc(N)nc(N)c1-c1ccc(Cl)cc1 [PYRIMETHAMINE]
2.66 µM: [3]
0.837 µM: [24]
1.5 µM: [8]
9.44 µM: [1]
6.66 µM: [17]
2.67 µM: [21]
12.4 µM: [25]
11.1 µM: [12]
2.86 µM: [2]
9.86 µM: [16]
> 20 µM: all other assays above

O=C(/C=C/c1ccccc1)NC(NC(=S)Nc1cccc2cccnc12)C(Cl)(Cl)Cl (stereo not given) [SALUBRINAL]
14 µM: [12]
7.57 µM: [23]
10.6 µM: [21]
8.94 µM: [4]
15.7 µM: [3]
8.43 µM: [1]
7.97 µM: [11]
11.3 µM: [6]
6.05 µM: [8]
> 16 µM: all other assays above
